# Assay results as given in patent publication US20040229777A1, “Crystalline phases of a potent HCV inhibitor” (Boehringer Ingelheim International GmbH, priority 2003, published 2004).
# Tests used:
# [1] = Moisture adsorption/desorption isotherm (VTI SGA-100 moisture balance); assay type: physicochemical; conditions: 25° C.; adsorption 5 to 95% RH, desorption 95 to 5% RH; samples dried at 50° C. prior to analysis
# Text: It is clear from FIG. 3 that the moisture content of Type A varies depending on the relative humidity of its environment, up to a maximum water sorption level of about 3.7% by weight. […] It is clear from FIG. 7 that the moisture content of Type B varies depending on the relative humidity of its environment, up to a maximum water sorption level of about 4.5% by weight. Moisture adsorption/desorption data were collected on a VTI SGA-100 moisture balance system, available from VTI Corporation of Hialeah, Fla. For adsorption isotherms, an adsorption range of 5 to 95% relative humidity and a desorption range of 95 to 5% relative humidity in 5% relative humidity increments were used for analysis. The samples were dried at 50° C. prior to analysis. The analyses were conducted at 25° C. Equilibrium criteria used for the analysis were less than 0.001 percent change in 5 minutes with a maximum equilibration time of 1200 minutes if the weight criterion was not met.
# [2] = XRPD analysis of the crystal phase under varied relative humidity and elevated temperature; assay type: physicochemical
# Text: This behavior is typical of channel hydrates, whereby water resides within the channels in the crystal lattice and can readily move in and out of the structure. Type A is therefore believed to be a type of channel hydrate. Type B is also a variable hydrate crystalline phase of Compound (1), i.e., the number of water molecules associated with each molecule of Compound (1) may vary. […] For this reason, it is preferable to maintain Type B at a modest RH level of about 20% to 40%. X-ray powder diffraction analyses were conducted on a Bruker AXS X-Ray Powder Diffractometer Model D8 Advance, available from Bruker AXS, Inc. of Madison, Wis., using CuKα radiation. The instrument is equipped with a long fine focus x-ray tube. The tube power was set to 40 kV and 30 mA. The instrument was operated in parallel beam mode with a Gobel Mirror, using a 0.6 mm exit slit, a 0.40 soller slit, a LiF flat crystal diffracted beam monochromator and a NaI scintillation detector. A detector scan was run using a tube angle of 1° 2θ. Step scans were run from 2 to 35° 2θ, at 0.050 per step, 4 sec per step. A reference quartz standard was used to check instrument alignment. Samples were prepared for analysis by filing a zero background quartz holder.
maximum water sorption level [1],SMILES,crystal structure behaviour under varied humidity and temperature ([2]; dry nitrogen up to ˜85% RH and elevated temperature (up to 160° C.)),"crystal structure behaviour under varied humidity and temperature ([2]; low relative humidity (e.g., dry nitrogen) and/or elevated temperature (˜90° C.))"
about 3.7 % by weight,COc1ccc2c(O[C@@H]3C[C@H]4C(=O)N[C@]5(C(=O)O)C[C@H]5/C=C\CCCCC[C@H](NC(=O)OC5CCCC5)C(=O)N4C3)cc(-c3csc(NC(C)C)n3)nc2c1 [Type A],crystal lattice expands at higher RH levels while maintaining its overall structure,
about 4.5 % by weight,COc1ccc2c(O[C@@H]3C[C@H]4C(=O)N[C@]5(C(=O)O)C[C@H]5/C=C\CCCCC[C@H](NC(=O)OC5CCCC5)C(=O)N4C3)cc(-c3csc(NC(C)C)n3)nc2c1 [Type B],,readily loses water resulting in a partial collapse of its crystal structure
